What all share (experiment): NCI-60 cell line screen, 48 h
Assay [1] concerns OVCAR-5 ovarian.
Assay [2] has as its system SW-620 colon.
Assay [3] relates to IGROV1 ovarian.
The subject of assay [4] is RPMI-8226 leukemia.
Assay [5] deals with HOP-62 NSCLC.
The test system of assay [6] is SNB-19 CNS.
Assay [7] deals with SK-MEL-5 melanoma.
Assay [8] deals with HCT-15 colon.
Assay [9] deals with MDA-MB-435.
Assay [10] has as its system HS 578T breast.

Each structure is given as a SMILES string.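 Following 48 hours of exposure in 96-well plates, responses at five concentrations were used to interpolate endpoints linearly. GI50 is the concentration that inhibits growth by half. TGI is the concentration that stops growth completely.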

As for `Cc1ccccc1NC(=O)C(=O)C(C#N)c1ccc(Cl)cc1` (stereo not given), the TGI in assay [1] was > 100 µM; in [2], 31.2 µM; in [3], > 100 µM; in assay [4], 48.8 µM; in assay [5], > 100 µM; in [6], > 100 µM. Besides, the TGI in assay [7] was > 100 µM; in assay [8] it was 37.1 µM.
Regarding `CC(C)(C)OC1=C(OC(C)(C)C)C(O)(c2ccccc2)C1=O` (stereo not given), the TGI in assay [1], in assay [2], in assay [3], in [4], in assay [6] and in assay [7] was > 100 µM each time. The TGI in assay [8] was > 100 µM.
For the compound `Cc1ccc(NC(=O)c2cc3cc(N=Nc4ccc(Br)cc4)ccc3oc2=O)cc1`, the TGI in assay [1], in assay [2], in assay [4], in assay [6], in assay [7] and in [8] was > 100 µM in each case.
As to `COc1ccc(C2CC(=O)c3c(O)cc(O)cc3O2)cc1O` (stereo not given), the TGI in assay [1], in assay [2], in [3], in assay [4], in assay [5] and in assay [6] was > 100 µM throughout. Further, the TGI in assay [7] and in [8] was > 100 µM throughout.
Take `COc1c(C=O)c2c(c(OC)c1OC)-c1ccc(OC)c(=O)cc1[C@@H](NC(C)=O)CC2`: the TGI in [1] was > 100 µM; in assay [2] it was > 100 µM; in [3] it was 76.6 µM; in assay [4], 47.2 µM; in [5], > 100 µM; in assay [9], 24.6 µM. For the same compound, the TGI in [6] is > 92.8 µM; in [7] it was 0.272 µM; in assay [8], > 100 µM.
For the compound `O=C(Nc1ccccc1-c1n[nH]c(=S)[nH]c1=O)C(F)(F)F`, the TGI in assay [1], in assay [2], in [3], in assay [5], in [6] and in [7] was > 100 µM each time. Also, the TGI in assay [8] is > 100 µM.
As for `O=C(Nc1ccc(Cl)cc1Cl)C1C(=O)N(c2ccc(Cl)cc2Cl)C(=O)/C1=N\Nc1ccc([N+](=O)[O-])cc1[N+](=O)[O-]` (stereo not given), the TGI in assay [1] was > 100 µM; in assay [2], > 100 µM; in assay [3], > 100 µM; in assay [4] it was 69.5 µM; in [5], > 100 µM; in [6], > 100 µM. Further, the TGI in assay [7] and in assay [8] was > 100 µM in each case.
For `CS/C(=N\C(=S)N(C)C)N(c1ccccc1)c1nc(=[N+](C)C)ss1`, the TGI in assay [2] is 16.3 µM; in [3], > 100 µM; in [4], 6.24 µM; in [5], 52.9 µM; in assay [6], > 100 µM; in assay [8], > 100 µM.
Regarding `ON/N=C/c1cc2c(cc1Br)OCO2`, the TGI in assay [1], in [2], in assay [3], in [4], in [5] and in [6] was > 386 µM in each case. Moreover, the TGI in assay [7] is > 386 µM.
Regarding `CCOC(=O)Nc1cc2nnc(-c3ccccc3)nc2c(N)n1`, the TGI in assay [1] is 48.5 µM; in assay [2], 42.2 µM; in [3], > 100 µM; in assay [4] it was 74.3 µM; in assay [5], 37.6 µM; in assay [6] it was > 100 µM. Also, the TGI in [7] is 35.7 µM; in assay [8], > 100 µM.
Consider `N=C(N)c1ccc(OCc2cccc(COc3ccc(C(=N)N)cc3)c2)cc1`, for which the GI50 in [1] is 29.1 µM; in assay [2] it was 5.64 µM; in [10] it was 4 µM; in assay [3], 22.2 µM; in assay [4], 3.11 µM; in assay [9], 4.01 µM. The results for the GI50 in [6], in [7] and in assay [8] were 5.75 µM, 1.96 µM and 17.8 µM, respectively. The TGI in assay [1] was > 100 µM; in [2], 21.3 µM; in [10], 12.5 µM; in assay [3] it was > 100 µM; in assay [4], 7.88 µM; in assay [9], 11.8 µM. Moreover, the TGI in assay [6] is > 100 µM; in assay [7] it was 4.28 µM; in [8], > 100 µM.
Consider `COC(=O)C1=C(c2ccc(OC)c(OC)c2)OC(c2ccc(OC)c(OC)c2)C1` (stereo not given), for which the TGI in assay [1] is > 100 µM; in assay [2], > 100 µM; in assay [3], > 100 µM; in assay [4], > 100 µM; in assay [5], > 100 µM; in assay [7] it was 34.3 µM. In addition, in assay [8], the TGI is > 100 µM.
Regarding `Nc1ccc2c(c1)C(=O)C(=O)c1c-2nc2ccccn12`, the GI50 in assay [1] is 1.92 µM; in assay [2] it was 1.8 µM; in assay [3], 1.52 µM; in [4] it was 1.8 µM; in [9], 0.186 µM; in [6], 1.64 µM. The GI50 in [7] is 0.178 µM; in assay [8] it was 0.427 µM. In addition, the TGI in assay [1] was found to be 3.57 µM; in assay [2], 3.83 µM; in assay [3], 3.55 µM; in assay [4], 4.71 µM; in assay [9] it was 0.352 µM; in assay [6], 3.23 µM. In addition, the figures for the TGI in assay [7] and in assay [8] were 0.329 µM and 1.87 µM, respectively.
Regarding `CC(NS(=O)(=O)c1ccc([N+](=O)[O-])cc1)C(=O)O` (stereo not given), the TGI in assay [1], in assay [2], in assay [3], in assay [4], in [6] and in [7] was > 100 µM throughout. For the same compound, in assay [8], the TGI was > 100 µM.
Turning to `Cc1ccc(S(=O)(=O)c2c(N)c3nc4ccccc4n3c3nc4ccccc4nc23)cc1`, the TGI in [1], in assay [2], in assay [3], in assay [4], in assay [5] and in assay [6] was > 100 µM in each case. Further, the TGI in assay [7] and in assay [8] was > 100 µM in each case.
Turning to `Cc1cc(N(CCC#N)CCC#N)ccc1/C=C1N=C(/C=C\c2ccccc2)OC\1=O`, the TGI in assay [1], in assay [2], in assay [3], in assay [4], in [5] and in [6] was > 100 µM throughout. Besides, the TGI in [7] and in [8] was > 100 µM in each case.
In the case of `COc1ccc(C(=O)c2cc(OC)c(OC)c(OC)c2)cc1`, the TGI was > 100 µM in assay [1]; > 100 µM in assay [2]; > 100 µM in assay [3]; 76.3 µM in assay [4]; > 100 µM in [5]; 0.0424 µM in [9]. Besides, the results for the TGI in assay [6] and in assay [7] were > 32.7 µM and 26.3 µM, respectively.
Take `O=C(Nc1c(O)[nH]c(=S)[nH]c1=O)c1ccccc1F`: the TGI in assay [1], in [2], in [3], in assay [4], in assay [5] and in assay [6] was > 100 µM in each case. Further, the TGI in assay [7] and in [8] was > 100 µM each time.
For `O=C(/C=C/c1ccc(OCCCOc2ccc(/C=C/C(=O)c3ccccc3)cc2)cc1)c1ccccc1`, the TGI in assay [2], in assay [3], in [4], in assay [5], in [6] and in assay [7] was > 100 µM each time. For the same compound, the TGI in assay [8] was > 100 µM.
In the case of `CC1CC(C2=CC=CCS2)=Nc2ccccc2S1` (stereo not given), the TGI in assay [1], in assay [2], in assay [3], in [4], in [5] and in assay [6] was > 100 µM each time. The TGI in assay [7] and in assay [8] was > 100 µM in each case.
Consider `C/C(CN1C(=O)c2ccccc2C1=O)=N\NS(=O)(=O)c1ccc(C)cc1`, for which the TGI in [1], in assay [2], in assay [3], in [4], in assay [5] and in assay [6] was > 100 µM in each case. In addition, the TGI in [7] and in assay [8] was > 100 µM each time.
For the compound `CN(C)c1ccc2c(=O)c3ccccc3oc2n1`, the TGI in assay [1], in [2], in assay [3], in [4], in assay [5] and in [6] was > 100 µM in each case. The TGI in [7] and in [8] was > 100 µM throughout.
In the case of `NC1=NC(=O)/C(=C/c2ccccc2[N+](=O)[O-])C(N)=N1`, the TGI in assay [1], in assay [2], in [3], in [4], in [5] and in [6] was > 100 µM throughout. Moreover, the TGI in assay [7] and in assay [8] was > 100 µM each time.
For the compound `N#Cc1ccccc1NC(=O)/C(=N\N)C(C(=O)c1ccncc1)C1OC(=O)c2ccccc21` (stereo not given), the TGI in assay [1], in assay [2], in assay [3], in assay [4], in assay [5] and in assay [6] was > 100 µM in each case. Also, the TGI in assay [7] and in assay [8] was > 100 µM each time.
With `COc1ccccc1/C=C(\C#N)c1ccccc1`, the TGI in [1] is > 100 µM; in assay [2], > 100 µM; in [3] it was > 100 µM; in assay [4] it was > 100 µM; in assay [5] it was > 100 µM; in assay [7] it was 40.9 µM. The compound also came in with a TGI in assay [8] of 67.4 µM.
As to `O=C(O)C/C(=C\c1ccco1)C(=O)O`, the TGI in [1], in assay [2], in assay [3], in assay [4], in assay [5] and in assay [9] was > 100 µM each time. Moreover, the TGI in [6], in [7] and in [8] was > 100 µM in each case.
For `CN1N=CSC12C(=O)N(c1ccc(Cl)cc1)C(=O)N2c1ccc(Cl)cc1` (stereo not given), the TGI is > 100 µM in assay [2]; > 100 µM in assay [3]; 7.21 µM in assay [4]; 15.5 µM in assay [5]; 69.5 µM in assay [6]; 15.1 µM in [7].
Regarding `CCN(CC)CCOCC[C@H]1CC[C@H]2[C@@H]3[C@H](C)Cc4cc(OS(N)(=O)=O)ccc4[C@H]3CC[C@]12C`, the GI50 in [1] is 2.52 µM; in assay [2], 1.38 µM; in [3], 2.41 µM; in assay [4], 0.704 µM; in [5], 1.43 µM; in assay [6] it was 1.71 µM. Further, the GI50 is 1.04 µM in assay [7] and 1.66 µM in [8]. The TGI in assay [1] was 7.34 µM; in assay [2], 2.75 µM; in [3], 8 µM; in [4], 2.67 µM; in [5] it was 2.88 µM; in assay [6], 3.17 µM. The TGI in [7] was 2.23 µM; in assay [8], 4.72 µM.
For the compound `F`, the GI50 in [1] is 2560 µM; in [3], 2800 µM; in assay [4] it was 3060 µM; in assay [5], 2560 µM; in assay [9], 2080 µM; in assay [6], 6220 µM. In addition, the GI50 is 1420 µM in [7] and 3800 µM in assay [8]. The TGI in assay [1] is > 6870 µM; in [3], > 6870 µM; in assay [4] it was > 6870 µM; in assay [5], > 6870 µM; in [9], 5500 µM; in [6], > 6870 µM. Also, the values for the TGI in [7] and in assay [8] were 2700 µM and > 6870 µM, respectively.

These data come from PubChem BioAssay (NCI).
